Experimental data from patent US20070014803A1, “METHODS AND COMPOSITIONS FOR DIAGNOSIS AND TREATMENT OF VIRAL AND BACTERIAL INFECTIONS” (Arbor Vita Corporation, priority 2005, published 2007).
Where no end group is shown, it is not given here.

Legend:
Assay in all cases: MATRIX screen against PDZ library (modified G assay)
Assay type in all cases: binding
Conditions in all cases: pre-incubation conditions
NOS1 = target: T1, NOS1 (Homo sapiens, UniProt P29475)
T1 construct: made in house
Protocol: (§1) Matrix graphPeptides and proteins were tested in an array format constituting a near complete set (255) of all the different PDZ domains in the human genome. Each PDZ domain polypeptide was expressed as a recombinant GST-PDZ polypeptide in a commercial glutathione S-transferase tagged expression system. Specific binding of biotinylated-PL peptides to PDZ domain polypeptides was detected using streptavidin-HRP and TMB substrate. Similarly, specific binding of PL protein-MBP fusion proteins to PDZ domain polypeptides was visualized using biotinylated anti-MBP, streptavidin-HRP and TMB substrate. The relative strength of binding was analyzed and the strong and weak binders are shown for each PL. A PDZ protein that binds more strongly is preferable when used for capturing or identifying PL proteins.
(§2) Two different types of ELISA assays were used to test the HIV Peptides 1904 and 1905. The primary MATRIX screen against all PDZ proteins in the library was performed under pre-incubation conditions, which are a modification of the G assay. A pre-incubation assay incubates the peptide with the HRP-streptavidin before addition of the mixture to the PDZ-coated plate. The subsequent titrations of the peptide against the PDZs of interest were performed under normal ELISA G assay conditions. In normal conditions the peptide is incubated on the PDZ coated plate before the later addition of the HRP-streptavidin. The reagents and supplies for both assays are listed below, as well as the two different protocols.
(§3) The PRISM Matrix ELISA modified G Assay was also used for pre-incubation and for the MATRIX assay. The protocol was as follows.
(§4) 1. Coat plate with 100 μl of 5 μg/ml anti-GST, O/N @ 4° C.
(§5) 2. Dump contents out of plate and tap dry on paper towels
(§6) 3. Block with 200 μl Assay Buffer for 1 to 2 hrs at room temperature
(§7) 4. Prepare proteins in Assay Buffer
(§8) 5. Wash plate 3× with cold PBS*
(§9) 6. Add proteins at 50 μl per well, incubate 1 to 2 hrs at 4° C.
(§10) 7. Prepare peptides in Assay Buffer:
(§11) • Prepare peptides in half of volume need with double of desired concentration. • Dilute HRP (1:1000) in another half of volume (same volume with peptide) then mix with peptides. • Incubate the peptide-HRP mixtures for 20 minutes at RT 8. Wash plate 3× with cold PBS* 9. Add peptide-HRP mixtures at 50 μl per well (write time on plate) 10. Incubate at RT after last peptide has been added for exactly 30 minutes 11. Turn on plate reader and prepare files 12. Promptly wash plate 5× with room temperature PBS 13. Add 100 μl/well TMB substrate (write time on plate) 14. Incubate in dark at room temp for a maximum of 30 minutes 15. Stop reaction with 100 μl of 0.18M H2SO4, 30 min. after adding TMB 16. Take last reading at 450 nm soon after stopping reaction

Magi1 d1 = target: T2, Magi1 d1 (Homo sapiens, UniProt Q96QZ7)
T2 construct: made in house
Protocol: as §1, §2, §3, §4, §5, §6, §7, §8, §9, §10, §11

SITAC-18 d1 = target: T3, SITAC-18 d1 (Homo sapiens, UniProt Q9H190)
T3 construct: made in house
Protocol: as §1, §2, §3, §4, §5, §6, §7, §8, §9, §10, §11

PAR6 beta = target: T4, PAR6 beta (Homo sapiens, UniProt Q9BYG5)
T4 construct: made in house
Protocol: as §1, §2, §3, §4, §5, §6, §7, §8, §9, §10, §11

PAR3L d3 = target: T5, PAR3L d3 (Homo sapiens, UniProt Q8TEW8)
T5 construct: made in house
Protocol: as §1, §2, §3, §4, §5, §6, §7, §8, §9, §10, §11

RhophilinLike = target: T6, RhophilinLike (Homo sapiens, UniProt Q8TCX5)
T6 construct: made in house
Protocol: as §1, §2, §3, §4, §5, §6, §7, §8, §9, §10, §11

AIPC d1 = target: T7, AIPC d1 (Homo sapiens, UniProt O15018)
T7 construct: made in house
Protocol: as §1, §2, §3, §4, §5, §6, §7, §8, §9, §10, §11

PICK1 F.L. = target: T8, PICK1 F.L. (Homo sapiens, UniProt Q9NRD5)
T8 construct: PICK1 F.L; made in house
Protocol: as §1, §2, §3, §4, §5, §6, §7, §8, §9, §10, §11

Shank 1 = target: T9, Shank 1 (Homo sapiens, UniProt Q9Y566)
T9 construct: made in house
Protocol: as §1, §2, §3, §4, §5, §6, §7, §8, §9, §10, §11

EBP50 = target: T10, EBP50 (Homo sapiens, UniProt O14745)
T10 construct: made in house
Protocol: as §1, §2, §3, §4, §5, §6, §7, §8, §9, §10, §11

Shank 3 = target: T11, Shank 3 (Homo sapiens, UniProt Q9BYB0)
T11 construct: made in house
Protocol: as §1, §2, §3, §4, §5, §6, §7, §8, §9, §10, §11

T3 sequence (Q9H190 104-195): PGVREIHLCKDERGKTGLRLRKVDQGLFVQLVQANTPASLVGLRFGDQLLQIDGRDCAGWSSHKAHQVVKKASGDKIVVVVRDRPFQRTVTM
T5 sequence (Q8TEW8 with tags, fused parts or gaps): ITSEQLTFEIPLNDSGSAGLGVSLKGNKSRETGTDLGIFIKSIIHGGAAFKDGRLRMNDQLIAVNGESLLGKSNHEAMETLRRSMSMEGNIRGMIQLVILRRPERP
T6 sequence (Q8TCX5 with tags, fused parts or gaps): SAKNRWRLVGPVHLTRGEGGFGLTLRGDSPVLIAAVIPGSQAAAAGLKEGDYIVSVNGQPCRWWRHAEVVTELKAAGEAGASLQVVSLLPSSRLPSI
T11 sequence (Q9BYB0 638-747): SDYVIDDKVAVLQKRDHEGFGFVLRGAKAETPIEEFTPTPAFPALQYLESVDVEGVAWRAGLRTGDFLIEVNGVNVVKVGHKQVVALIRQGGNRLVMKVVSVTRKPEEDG
T10 sequence (O14745 whole entry): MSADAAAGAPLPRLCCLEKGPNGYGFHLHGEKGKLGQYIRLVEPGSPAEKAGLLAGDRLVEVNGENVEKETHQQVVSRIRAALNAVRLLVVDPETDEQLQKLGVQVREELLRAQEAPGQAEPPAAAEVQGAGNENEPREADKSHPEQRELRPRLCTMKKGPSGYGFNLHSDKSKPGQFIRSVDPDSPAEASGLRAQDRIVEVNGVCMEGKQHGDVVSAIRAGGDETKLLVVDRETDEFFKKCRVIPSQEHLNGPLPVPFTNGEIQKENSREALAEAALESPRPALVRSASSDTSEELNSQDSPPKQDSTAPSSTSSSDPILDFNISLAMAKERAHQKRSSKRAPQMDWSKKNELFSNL
T2 sequence (Q96QZ7 with tags, fused parts or gaps): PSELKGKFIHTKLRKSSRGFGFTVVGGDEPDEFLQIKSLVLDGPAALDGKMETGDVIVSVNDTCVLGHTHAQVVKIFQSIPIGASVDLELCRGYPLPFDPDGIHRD
T9 sequence (Q9Y566 with tags, fused parts or gaps): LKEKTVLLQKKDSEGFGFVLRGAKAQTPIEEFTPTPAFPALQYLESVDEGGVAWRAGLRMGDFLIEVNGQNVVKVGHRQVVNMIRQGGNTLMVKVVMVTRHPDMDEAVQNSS
T1 sequence (P29475 11-100): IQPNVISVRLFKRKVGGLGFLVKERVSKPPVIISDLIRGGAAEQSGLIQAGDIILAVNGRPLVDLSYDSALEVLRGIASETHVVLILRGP
T7 sequence (O15018 with tags, fused parts or gaps): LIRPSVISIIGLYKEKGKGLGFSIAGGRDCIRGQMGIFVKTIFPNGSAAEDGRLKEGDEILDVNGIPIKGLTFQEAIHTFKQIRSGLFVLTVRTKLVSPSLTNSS
T4 sequence (Q9BYG5 with tags, fused parts or gaps): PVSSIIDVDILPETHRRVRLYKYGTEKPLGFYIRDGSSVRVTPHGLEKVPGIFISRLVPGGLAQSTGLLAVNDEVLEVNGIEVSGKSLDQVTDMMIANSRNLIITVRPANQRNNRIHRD
T8 sequence (Q9NRD5 whole entry): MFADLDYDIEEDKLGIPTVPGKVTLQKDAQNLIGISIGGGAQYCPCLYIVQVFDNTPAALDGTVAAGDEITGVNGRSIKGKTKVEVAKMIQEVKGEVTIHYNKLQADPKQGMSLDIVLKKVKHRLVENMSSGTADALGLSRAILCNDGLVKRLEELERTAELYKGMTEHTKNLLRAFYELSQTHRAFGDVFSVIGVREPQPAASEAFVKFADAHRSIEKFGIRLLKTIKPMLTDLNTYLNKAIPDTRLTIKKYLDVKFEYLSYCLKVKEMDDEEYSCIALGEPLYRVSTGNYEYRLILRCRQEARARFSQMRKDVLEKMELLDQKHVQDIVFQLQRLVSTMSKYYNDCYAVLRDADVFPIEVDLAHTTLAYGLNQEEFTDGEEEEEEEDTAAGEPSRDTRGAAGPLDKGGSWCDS

YGRKKRRQRRRRQGLERILL-OH [Peptide 1904]
STRONG: Intensity of Hit, PDZ NOS1 (NOS1) | Intensity of Hit, PDZ Magi1 d1 (Magi1 d1) | Intensity of Hit, PDZ SITAC-18 d1 (SITAC-18 d1) | Intensity of Hit, PDZ PAR6 beta (PAR6 beta) | Intensity of Hit, PDZ PAR3L d3 (PAR3L d3) | Intensity of Hit, PDZ RhophilinLike (RhophilinLike) | Intensity of Hit, PDZ AIPC d1 (AIPC d1)

YGRKKRRQRRRRQGFERALL-OH [Peptide 1905]
STRONG: Intensity of Hit, PDZ PICK1 F.L. (PICK1 F.L.) | Intensity of Hit, PDZ Shank 1 (Shank 1) | Intensity of Hit, PDZ EBP50 (EBP50) | Intensity of Hit, PDZ Shank 3 (Shank 3)
